According to ChEMBL document CHEMBL1201862, “PubChem BioAssay data set” (2004):
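Values below derive from 48-hour exposures of cells grown in 96-well plates, with endpoints linearly interpolated between the two concentrations bracketing the appropriate inhibition level. GI50 marks 50% less growth.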 The source made the active and inactive calls. Cut-off read from the data, not from the text of the source: active = GI50 up to about 1.1 µM and inactive = higher.

Legend:
Assay in all cases: NCI tumour cell line growth inhibition, 48 h
RPMI-8226 = test system: RPMI-8226
SK-OV-3 = test system: SK-OV-3
TK-10 = test system: TK-10
Hs-578T = test system: Hs-578T
NCI-H460 = test system: NCI-H460
DU-145 = test system: DU-145
SNB-19 = test system: SNB-19
OVCAR-8 = test system: OVCAR-8
NCI/ADR-RES = test system: NCI/ADR-RES
KM12 = test system: KM12
PC-3 = test system: PC-3
SW-620 = test system: SW-620
MCF7 = test system: MCF7
OVCAR-3 = test system: OVCAR-3
SF-539 = test system: SF-539
SF-268 = test system: SF-268
SK-MEL-28 = test system: SK-MEL-28
IGROV-1 = test system: IGROV-1
ACHN = test system: ACHN
LXFL 529 = test system: LXFL 529

Row | SMILES | GI50 (RPMI-8226) | GI50 (SK-OV-3) | GI50 (TK-10) | GI50 (Hs-578T) | GI50 (NCI-H460) | GI50 (DU-145) | GI50 (SNB-19) | GI50 (OVCAR-8) | GI50 (NCI/ADR-RES) | GI50 (KM12) | GI50 (PC-3) | GI50 (SW-620) | GI50 (MCF7) | GI50 (OVCAR-3) | GI50 (SF-539) | GI50 (SF-268) | GI50 (SK-MEL-28) | GI50 (IGROV-1) | GI50 (ACHN) | GI50 (LXFL 529)
1 | Cc1ccc(S(=O)(=O)N/N=C/c2c(O)ccc3ccccc23)cc1 | 26.7 µM (inactive) | 7.87 µM (inactive) | 45.8 µM (inactive) | 17.5 µM (inactive) | 26.3 µM (inactive) | 29 µM (inactive) | 41.1 µM (inactive) | 30.4 µM (inactive) | 27.7 µM (inactive) | 18.9 µM (inactive) | 20.7 µM (inactive) | 30.3 µM (inactive) | 25.5 µM (inactive) | 19.9 µM (inactive) | 16.1 µM (inactive) | 31.8 µM (inactive) | 35.5 µM (inactive) | 6.68 µM (inactive) | 23.9 µM (inactive) | 
2 | CCC1CN2CCc3cc(OC)c(OC)cc3C2CC1CC1c2cc(OC)c(OC)cc2CCN1C(=O)CNC(=O)OC(C)(C)C (stereo not given) | 19 µM (inactive) | 28.6 µM (inactive) | 28.6 µM (inactive) |  | 6.49 µM (inactive) |  | 13.9 µM (inactive) | 5.64 µM (inactive) |  | 3.31 µM (inactive) |  | 4.07 µM (inactive) |  | 11.9 µM (inactive) |  | 24.4 µM (inactive) | 23.8 µM (inactive) | 19.5 µM (inactive) | 21.5 µM (inactive) | 10.9 µM (inactive)
3 | COc1ccc(NC(=O)/C(=N/O)C(C)=O)cc1 | > 100 µM (inactive) | > 100 µM (inactive) | > 100 µM (inactive) |  | 23.5 µM (inactive) |  | > 100 µM (inactive) | > 100 µM (inactive) |  | > 100 µM (inactive) |  | 15.8 µM (inactive) |  |  | > 100 µM (inactive) | > 100 µM (inactive) | > 100 µM (inactive) | > 100 µM (inactive) | > 100 µM (inactive) | > 100 µM (inactive)
4 | Cc1nc(Nc2ccc(Cl)cc2)sc1C(=O)Nc1cccc2c(=O)[nH][nH]c(=O)c12 |  | 52.6 µM (inactive) | > 100 µM (inactive) |  | 25.8 µM (inactive) |  | 43.3 µM (inactive) | > 100 µM (inactive) |  | 51.8 µM (inactive) |  | 25.5 µM (inactive) |  | 18.9 µM (inactive) | 36.7 µM (inactive) | 31.8 µM (inactive) | 52.4 µM (inactive) | 25.2 µM (inactive) | 20.9 µM (inactive) | 13.1 µM (inactive)
5 | N=C1OC(CN2CCN(c3ccccc3)CC2)CN1C(=S)Nc1ccccc1 (stereo not given) | 54 µM (inactive) | > 100 µM (inactive) | 43.5 µM (inactive) | 13 µM (inactive) | 63.1 µM (inactive) | > 100 µM (inactive) | 96.4 µM (inactive) | 99.3 µM (inactive) | 45.4 µM (inactive) | 39.2 µM (inactive) | 65.3 µM (inactive) | > 100 µM (inactive) | 37.2 µM (inactive) | 42.8 µM (inactive) | 96.2 µM (inactive) | 39.4 µM (inactive) | 84.3 µM (inactive) | 92.7 µM (inactive) | 66.5 µM (inactive) | 
6 | Cc1cccc2c1Sc1ccccc1C2NC(=O)CCN(C)C (stereo not given) | > 100 µM (inactive) | > 100 µM (inactive) | > 100 µM (inactive) |  | > 100 µM (inactive) |  | > 100 µM (inactive) | > 100 µM (inactive) |  |  |  | > 100 µM (inactive) |  |  | > 100 µM (inactive) | > 100 µM (inactive) | > 100 µM (inactive) | > 100 µM (inactive) | > 100 µM (inactive) | > 100 µM (inactive)
7 | CCOC(=O)/C(=C/c1cccc(Cl)c1)N(CC)CC | 36.7 µM (inactive) | 35.1 µM (inactive) | > 100 µM (inactive) |  | 46.5 µM (inactive) |  |  | 42.2 µM (inactive) |  | 39.1 µM (inactive) |  | 59 µM (inactive) |  |  | 73.5 µM (inactive) | 52.7 µM (inactive) | 90.8 µM (inactive) | 49.4 µM (inactive) | 35.5 µM (inactive) | 46.7 µM (inactive)
8 | CCN(CC)c1ccc2c(c1)Oc1ccc(N(C(C)=O)c3ccccc3)cc1C21OC(=O)c2ccccc21 (stereo not given) | 6.76 µM (inactive) | > 100 µM (inactive) | > 100 µM (inactive) | 58.3 µM (inactive) | 65.9 µM (inactive) | > 100 µM (inactive) | > 100 µM (inactive) | > 75.5 µM (inactive) | > 61.8 µM (inactive) | 23 µM (inactive) | 13.1 µM (inactive) | 47.1 µM (inactive) | 40.3 µM (inactive) | > 100 µM (inactive) | > 100 µM (inactive) | > 100 µM (inactive) | > 100 µM (inactive) | > 100 µM (inactive) | > 100 µM (inactive) | 
9 | Cc1ccc2c3c4c(ccc13)C(C)(C)OC4=C(C(C)C)C2=O | 43.7 µM (inactive) | > 100 µM (inactive) | 67 µM (inactive) | 8.36 µM (inactive) | 31.8 µM (inactive) | > 100 µM (inactive) | > 100 µM (inactive) | 44.7 µM (inactive) | 19.5 µM (inactive) | 54.3 µM (inactive) | 14.5 µM (inactive) | > 100 µM (inactive) | 44.7 µM (inactive) | 13.8 µM (inactive) | > 100 µM (inactive) | 34.7 µM (inactive) | 91.6 µM (inactive) | 55.3 µM (inactive) | 84.5 µM (inactive) | 
10 | Cc1csc2nc(-c3ccc([N+](=O)[O-])cc3)c(/C=N/N=C(N)N)n12 | 2.05 µM (inactive) | 1.69 µM (inactive) | 1.92 µM (inactive) | 2.09 µM (inactive) | 1.79 µM (inactive) | 2.21 µM (inactive) | 1.92 µM (inactive) | 0.716 µM (active) | 6.89 µM (inactive) | 1.7 µM (inactive) | 1.69 µM (inactive) | 1.94 µM (inactive) | 1.61 µM (inactive) | 2.49 µM (inactive) | 1.85 µM (inactive) | 1.68 µM (inactive) | 1.74 µM (inactive) | 1.44 µM (inactive) | 1.28 µM (inactive) | 
11 | CC(CN1NC12CCCC2)N1NC12CCCC2 (stereo not given) | > 100 µM (inactive) | > 100 µM (inactive) | > 100 µM (inactive) | > 100 µM (inactive) | > 100 µM (inactive) | > 100 µM (inactive) | > 100 µM (inactive) | > 100 µM (inactive) | > 100 µM (inactive) | > 100 µM (inactive) | > 100 µM (inactive) | > 100 µM (inactive) | > 100 µM (inactive) | > 100 µM (inactive) | > 100 µM (inactive) | > 100 µM (inactive) | > 100 µM (inactive) | > 100 µM (inactive) | > 100 µM (inactive) | 
12 | CC(C)c1ccccc1NC(=O)C(=O)Cc1nc2ccccc2s1 |  | > 100 µM (inactive) | > 100 µM (inactive) |  | > 100 µM (inactive) |  | > 100 µM (inactive) | > 100 µM (inactive) |  | > 100 µM (inactive) |  | > 100 µM (inactive) |  | > 100 µM (inactive) | > 100 µM (inactive) | > 100 µM (inactive) | > 100 µM (inactive) | > 100 µM (inactive) | > 100 µM (inactive) | > 100 µM (inactive)
13 | COC(=O)c1ccc2c(c1)CCN2C(=O)c1cc2c(cc1Br)OCO2 | 0.668 µM (active) | 3.05 µM (inactive) | 2 µM (inactive) | 0.658 µM (active) | 5.81 µM (inactive) | 1.71 µM (inactive) | 0.439 µM (active) | 2.11 µM (inactive) | 0.342 µM (active) | 0.424 µM (active) | 0.573 µM (active) | 0.822 µM (active) | 0.251 µM (active) | 0.313 µM (active) | 0.148 µM (active) | 1.8 µM (inactive) | 11 µM (inactive) | 0.614 µM (active) | 5.19 µM (inactive) | 
14 | c1ccc2c(c1)cc1n2CC2CN=NC12 (stereo not given) | > 100 µM (inactive) | > 100 µM (inactive) |  |  | > 100 µM (inactive) |  | > 100 µM (inactive) | > 100 µM (inactive) |  | > 100 µM (inactive) |  | > 100 µM (inactive) |  | > 100 µM (inactive) | > 100 µM (inactive) | > 100 µM (inactive) | > 100 µM (inactive) | > 100 µM (inactive) | > 100 µM (inactive) | > 100 µM (inactive)
15 | CC1(C)Oc2ccccc2[N+]([O-])=C1c1ccccc1 | > 100 µM (inactive) | > 100 µM (inactive) |  |  | > 100 µM (inactive) |  | > 100 µM (inactive) | > 100 µM (inactive) |  |  |  | > 100 µM (inactive) |  | > 100 µM (inactive) | > 100 µM (inactive) | > 100 µM (inactive) | > 100 µM (inactive) | > 100 µM (inactive) | > 100 µM (inactive) | > 100 µM (inactive)
16 | O=C1OC(=O)c2c1c(-c1ccccc1)nc1ccccc21 | > 100 µM (inactive) | > 100 µM (inactive) | > 100 µM (inactive) |  | > 100 µM (inactive) |  | > 100 µM (inactive) | > 100 µM (inactive) |  | > 100 µM (inactive) |  | > 100 µM (inactive) |  | > 100 µM (inactive) | > 100 µM (inactive) | > 100 µM (inactive) | > 100 µM (inactive) | > 100 µM (inactive) |  | > 100 µM (inactive)
17 | COc1ccc2c(c1)CCc1cc(OC)ccc1/[N+]([O-])=[N+]\2[O-] | 4.86 µM (inactive) | 18.7 µM (inactive) | 22.4 µM (inactive) | 25.1 µM (inactive) | 19.1 µM (inactive) | 18.1 µM (inactive) | 21.6 µM (inactive) | 10.4 µM (inactive) | 24.9 µM (inactive) | 20.2 µM (inactive) | 14.8 µM (inactive) | 7.1 µM (inactive) | 9.29 µM (inactive) | 16.6 µM (inactive) | 21.2 µM (inactive) | 16.7 µM (inactive) | 18.7 µM (inactive) | 12.1 µM (inactive) | 10.8 µM (inactive) | 
